Key:
caspase 8 and caspase 9 = test: Western blot of caspase 8 and caspase 9 cleavage in K562 cells; format: cell-based, human; settings: K562, 5 µM
Method: (§1) 0.15 × 10^6 cells/ml were seeded on a 6-well plate (Nunclon, Thermo Fisher Scientific, Waltham, MA, USA). Following 24 hour preincubation the cells were treated with either the compound or 1% DMSO (control) for 24 or 48 hours. Cells were lysed using RIPA Buffer (Sigma) supplemented with Complete Protease Inhibitor Coctail (Roche, Basel, Switzerland) and PhosSTOP (Roche). Samples containing 20 µg protein were resuspended in 4× Laemmli’s Buffer (Biorad, Hercules, CA, USA), separated on 10% acrylamide gel (TGX Stain-Free Gel Kit, Biorad) and blotted onto nitrocellulose membrane (Panreac Applichem ITW, Darmstadt, Germany). Blots were blocked in 5% non-fat dry milk in TBST (1% (v/v) Tween-20, 140 mM NaCl, 25 mM Trizma, pH = 7.4 adjusted with HCl) for 1 h and incubated overnight with the antibodies against caspase-9 (9502), caspase-8 (9746), caspase-3 (9662), caspase-3 cleaved (9661) and β-actin (3700), all from Cell Signaling Technology, and antibody against poly(ADP-ribose)polymerase (PARP, 551025) from BD Pharmingen. Membranes were incubated with appropriate species-specific secondary antibodies conjugated with HRP (Cell Signaling Technology, Danvers, MA, USA). Blots were developed using ECL substrate (Biorad, Hercules, CA, USA). The experiment was performed in at least three independent biological replicates.

caspase 3 and PARP = test: Western blot of caspase 3 and PARP cleavage in K562 cells; format: cell-based, human; settings: 24 h
Method: as §1

## CCC12C(=O)C(CC)(C(c3ccccc3)=C1c1ccccc1)C1C(=O)N(CC(O)CNC(C)C)C(=O)C12 (stereo not drawn) [Compound 5]
Caspase 8 and caspase 9; 24 h
  cleavage of caspase 8 and caspase 9 (Western blot): cleaved form of caspase 9
Caspase 8 and caspase 9; 48 h
  cleavage of caspase 8 and caspase 9 (Western blot): Cleaved (i.e., activated) forms of caspases 8/9 were detected
Caspase 3 and PARP
  caspase 3 and PARP cleavage (Western blot): presence of cleavage fragments of PARP (85 kDa) and caspase 3 (17 kDa)

Source: article PMC6770581, “New Thalidomide-Resembling Dicarboximides Target ABC50 Protein and Show Antileukemic and Immunomodulatory Activities” (Biomolecules, 2019)
